For assay [1], the system named is CHFR expression in esophageal cancer cell lines. The assay can be described thus: CHFR expression by RT-PCR in esophageal cancer cell lines after treatment with demethylating agent. The class given is cell-based. The note with it: for Expression of CHFR (RNA level, RT-PCR) in CHFR-methylated cell lines: KYSE150 and KYSE510, no expression at baseline, 72 hour treatment. From the text: A) Methylation-specific PCR (MSP) of the CHFR promoter region was examined in esophageal cancer cell lines. […] B) Expression of CHFR as determined by RT-PCR. […] C) Position of MSP primers and molecular beacon in the promoter region of the CHFR gene. A previously described gel-based MSP assay for detection of CHFR methylation in colorectal cancer was used 20.

The subject of assay [2] is advanced localized esophageal cancer. As to the kind of experiment: Response (pCR) and overall survival of esophageal cancer patients after neoadjuvant chemoradiotherapy and surgery, by CHFR methylation status. It is filed as in vivo, human. The note with it: for Overall survival when CHFR methylation present vs. absent: paclitaxel n=31, docetaxel n=18, Kaplan-Meier; for Overall survival, docetaxel vs. paclitaxel: taxane-based therapy, N=49. The procedure: Endoscopic tumor biopsy specimens were studied from 81 patients with advanced localized esophageal cancer scheduled to undergo neoadjuvant chemoradiotherapy and surgery at the Johns Hopkins Hospital (JHH) between January 1995 and January 2007. Forty-nine patients were treated with taxane based combination chemoradiotherapy. Pretreatment esophageal tumor tissue from endoscsopic biopsy was initially available from JHH for twenty-one patients treated with taxanes. After an analysis of these initial 21 patients, IRB permission was obtained to request further biopsy specimens from referring endoscopy centers for patients subsequently treated at Johns Hopkins Hospital. This allowed analysis of pretreatment endoscopic tumor biopsies from an additional 28 patients treated with taxanes and 32 patients treated with non-taxane regimens. […] Of the forty-nine taxane-treated patients, thirty-one received paclitaxel containing combinations, while eighteen received a docetaxel-based combination shown in the Table below.
Response to preoperative chemoradiotherapy was based on pathology of the resected esophagus and nodal tissue specimen and classified as either pathologic complete response (pCR) or non-pCR, where pCR is the complete absence of intact tumor cells in surgical pathology specimens. We verified histological results and deaths during follow-up by re-examining original hospital records. This study was approved by the Johns Hopkins Institutional Review Board.
Methylation of CHFR was determined by detecting analyte (CHFR and ACTS) with real-time MSP using molecular beacons. These consisted of parallel amplification/quantification using specific primer and detector pairs for each analyte using the iCycler (BioRad Laboratories, Hercules, Calif.). […] Duplicate PCR amplifications were analyzed using iQuant 3.0 software (BioRad), exported as Ct values, and used to calculate copy numbers based on a linear regression of values plotted on a standard curve of 20-2×10^6 gene copy equivalents of plasmid DNA containing bisulfite modified CHFR. CHFR copy numbers were divided by ACTB copy numbers for each sample to normalize for DNA quality and quantity, multiplied by 100 for convenience to determine the ratio-value. […]
Based upon findings from the initial 21 patients treated with taxanes and 40% methylation prevalence, the study size necessary to detect a hazard ratio of death of 3.00 for unmethylated CHFR was estimated. […] The primary endpoint was time to death or censor measured from the origin date of pretreatment endoscopic biopsy. […] Associations between clinical response and CHFR methylation were assessed using logistic regression. […] Statistical comparisons and survival between groups were analyzed using the log-rank test. […]

Entries after “also recorded” stand apart in the source; their conditions may differ.

For `Nc1ncn([C@H]2C[C@H](O)[C@@H](CO)O2)c(=O)n1` [5-aza-2′-deoxycytidine], the “Expression of CHFR (RNA level, RT-PCR) in CHFR-methylated cell lines” value in assay [1] was “re-express the gene at the RNA level”; in assay [1] (listed as 5-aza-2′ deoxycytidine) it was “reversed”. Moreover, in assay [1] (all other (unmethylated) esophageal cancer cell lines, express CHFR at baseline), the “Expression of CHFR (RT-PCR) in unmethylated cell lines” value is recorded as “not affected”.

In the case of `CC(=O)O[C@@]12CO[C@@H]1C[C@H](O)[C@@]1(C)C(=O)[C@H](O)C3=C(C)[C@@H](OC(=O)[C@H](O)[C@@H](NC(=O)OC(C)(C)C)c4ccccc4)C[C@@](O)([C@@H](OC(=O)c4ccccc4)[C@H]21)C3(C)C` [docetaxel], in assay [2], the “Overall survival when CHFR methylation present vs. absent” value is “survival advantage; also recorded: improvement in survival” and the “Overall survival, docetaxel vs. paclitaxel” value is reported as “no difference”.

Regarding `CC(=O)O[C@H]1C(=O)[C@@]2(C)[C@H]([C@H](OC(=O)c3ccccc3)[C@]3(O)C[C@H](OC(=O)[C@H](O)[C@@H](NC(=O)c4ccccc4)c4ccccc4)C(C)=C1C3(C)C)[C@]1(OC(C)=O)CO[C@@H]1C[C@@H]2O` [paclitaxel], in assay [2], the “Overall survival when CHFR methylation present vs. absent” value is “survival advantage; also recorded: significantly greater” and the “Overall survival, docetaxel vs. paclitaxel” value is “no difference”.

Source of the values: US20110159504A1, “METHYLATION MARKERS FOR SENSITIVITY TO MICROTUBE BASED THERAPIES AND METHODS OF USE” (THE JOHNS HOPKINS UNIVERSITY, priority 2008, published 2011).
